From ChEMBL document CHEMBL1201862, “PubChem BioAssay data set” (2004)
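Compound exposure: 48 hours, 5 concentrations, 96-well plates. GI50 marks 50% less growth.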 Calls of active or inactive are those of the source. No stated cut-off is given here; in the data, active = GI50 up to about 1.1 µM and inactive = higher.

Columns and labels:
Assay in all cases: NCI tumour cell line growth inhibition, 48 h
[1] = tested on: MCF7
[2] = tested on: UACC-62
[3] = tested on: T47D
[4] = tested on: NCI-H23
[5] = tested on: ACHN
[6] = tested on: MDA-MB-435
[7] = tested on: M14
[8] = tested on: BT-549
[9] = tested on: MOLT-4
[10] = tested on: SW-620
[11] = tested on: KM12
[12] = tested on: RXF 393
[13] = tested on: UACC-257
[14] = tested on: OVCAR-5
[15] = tested on: EKVX
[16] = tested on: PC-3
[17] = tested on: 786-0
[18] = tested on: SF-539
[19] = tested on: SNB-19
[20] = tested on: SNB-75

Compound	GI50 [1]	GI50 [2]	GI50 [3]	GI50 [4]	GI50 [5]	GI50 [6]	GI50 [7]	GI50 [8]	GI50 [9]	GI50 [10]	GI50 [11]	GI50 [12]	GI50 [13]	GI50 [14]	GI50 [15]	GI50 [16]	GI50 [17]	GI50 [18]	GI50 [19]	GI50 [20]
COc1ccc2c(c1)[C@@]13CCN4CC5=CCO[C@H]6CC(=O)N2[C@H]1[C@H]6[C@H]5C[C@H]43	> 100 µM (inactive)	> 100 µM (inactive)	> 100 µM (inactive)	> 100 µM (inactive)	> 100 µM (inactive)	> 100 µM (inactive)	> 100 µM (inactive)	> 100 µM (inactive)	18.6 µM (inactive)	> 100 µM (inactive)	> 100 µM (inactive)	> 100 µM (inactive)	> 100 µM (inactive)	> 100 µM (inactive)	44.4 µM (inactive)	> 100 µM (inactive)	> 100 µM (inactive)	> 100 µM (inactive)	> 100 µM (inactive)	–
O=[N+]([O-])C(=C(Nc1ccccc1)Nc1ccccc1)/C(Cl)=C(\Cl)Br	12.5 µM (inactive)	–	12.7 µM (inactive)	12.1 µM (inactive)	11.4 µM (inactive)	–	4.89 µM (inactive)	21.7 µM (inactive)	3.1 µM (inactive)	6.82 µM (inactive)	12.3 µM (inactive)	–	14.7 µM (inactive)	10.6 µM (inactive)	14.8 µM (inactive)	15.6 µM (inactive)	16.3 µM (inactive)	22 µM (inactive)	> 10 µM (inactive)	12.4 µM (inactive)
Cc1c(C)c(S(=O)(=O)N(CCCCCN)OCCCN)c(C)c2c1OC(C)(C)CC2	–	12.9 µM (inactive)	16.6 µM (inactive)	14.6 µM (inactive)	17.2 µM (inactive)	5.82 µM (inactive)	27.7 µM (inactive)	13.5 µM (inactive)	3.76 µM (inactive)	7.8 µM (inactive)	2.92 µM (inactive)	11.6 µM (inactive)	13.8 µM (inactive)	24.8 µM (inactive)	11.4 µM (inactive)	4.06 µM (inactive)	6.62 µM (inactive)	> 25.3 µM (inactive)	7.91 µM (inactive)	6.4 µM (inactive)
CC(C)(O)CCc1ccc(O)c2c(=O)c3c(O)c4c(cc3oc12)O[C@H]1OC=C[C@@]41O [AUSTOCYSTIN D]	< 0.01 µM (active)	< 0.01 µM (active)	–	< 0.01 µM (active)	< 0.01 µM (active)	< 0.01 µM (active)	0.411 µM (active)	9.06 µM (inactive)	< 0.0106 µM (active)	< 0.01 µM (active)	< 0.01 µM (active)	0.148 µM (active)	0.0184 µM (active)	0.0615 µM (active)	0.255 µM (active)	0.119 µM (active)	7.06 µM (inactive)	0.514 µM (active)	0.148 µM (active)	0.0562 µM (active)
Cc1cc2ncc3c(=O)n(NS(=O)(=O)c4ccc(N)cc4)ccc3n2n1	> 100 µM (inactive)	> 100 µM (inactive)	> 100 µM (inactive)	> 100 µM (inactive)	> 100 µM (inactive)	> 100 µM (inactive)	> 100 µM (inactive)	> 100 µM (inactive)	> 100 µM (inactive)	> 100 µM (inactive)	> 100 µM (inactive)	–	> 100 µM (inactive)	> 100 µM (inactive)	> 100 µM (inactive)	> 100 µM (inactive)	> 100 µM (inactive)	> 100 µM (inactive)	> 100 µM (inactive)	> 100 µM (inactive)
CO/N=C(\C(=O)Nn1cn[n+](CC(=O)[O-])c1)c1csc(N)n1	> 10 µM (inactive)	> 10 µM (inactive)	> 10 µM (inactive)	> 10 µM (inactive)	> 10 µM (inactive)	–	> 10 µM (inactive)	> 10 µM (inactive)	> 10 µM (inactive)	> 10 µM (inactive)	> 10 µM (inactive)	–	> 10 µM (inactive)	–	> 10 µM (inactive)	–	> 10 µM (inactive)	–	–	9.25 µM (inactive)
N#Cc1nc(CCCCCN2C(=O)c3ccccc3C2=O)oc1N	> 100 µM (inactive)	–	> 100 µM (inactive)	> 100 µM (inactive)	> 100 µM (inactive)	> 100 µM (inactive)	> 100 µM (inactive)	25.7 µM (inactive)	75.7 µM (inactive)	> 100 µM (inactive)	> 100 µM (inactive)	> 100 µM (inactive)	> 100 µM (inactive)	> 100 µM (inactive)	> 100 µM (inactive)	> 100 µM (inactive)	> 100 µM (inactive)	> 100 µM (inactive)	> 100 µM (inactive)	–
CC(C)(Oc1ccc(Cl)cc1)C(=O)N(C(=O)N1CCCCC1)c1ccccc1	19.6 µM (inactive)	13.2 µM (inactive)	0.891 µM (active)	14.2 µM (inactive)	14.9 µM (inactive)	16 µM (inactive)	17.5 µM (inactive)	15.4 µM (inactive)	3.41 µM (inactive)	12.9 µM (inactive)	5.87 µM (inactive)	18 µM (inactive)	–	12 µM (inactive)	2.45 µM (inactive)	3.4 µM (inactive)	13.4 µM (inactive)	8.34 µM (inactive)	16.8 µM (inactive)	–
COc1ccc2c(c1)OCC1Cc3cccc(OC)c3OC21 (configuration not stated)	–	71.1 µM (inactive)	30.1 µM (inactive)	58.3 µM (inactive)	–	28.7 µM (inactive)	96.2 µM (inactive)	26.9 µM (inactive)	28 µM (inactive)	60.3 µM (inactive)	65 µM (inactive)	–	36.1 µM (inactive)	> 100 µM (inactive)	52.2 µM (inactive)	35.6 µM (inactive)	> 100 µM (inactive)	> 100 µM (inactive)	–	–
CCCCCCC(CCl)c1sc(-c2csc(CCNC(=O)OC(C)(C)C)n2)nc1C(=O)OC (configuration not stated)	11 µM (inactive)	13.8 µM (inactive)	3.53 µM (inactive)	15.3 µM (inactive)	23.3 µM (inactive)	12.5 µM (inactive)	–	18.5 µM (inactive)	4.58 µM (inactive)	36 µM (inactive)	17.8 µM (inactive)	–	27.1 µM (inactive)	32.1 µM (inactive)	26.6 µM (inactive)	15.9 µM (inactive)	19.3 µM (inactive)	21.4 µM (inactive)	40.6 µM (inactive)	–
CS(=O)(=O)Nc1ccc(N2Cc3c[nH]c4ccc5nccc2c5c34)cc1	8.65 µM (inactive)	16.3 µM (inactive)	3.5 µM (inactive)	24.6 µM (inactive)	28.6 µM (inactive)	15.5 µM (inactive)	15.5 µM (inactive)	21.8 µM (inactive)	2.72 µM (inactive)	15 µM (inactive)	17.6 µM (inactive)	–	14.5 µM (inactive)	22.8 µM (inactive)	44.7 µM (inactive)	16.1 µM (inactive)	14.3 µM (inactive)	–	13.1 µM (inactive)	–
O=C1C2SC34c5c2c2ccccc2n5CCC3CCCN14 (configuration not stated)	> 100 µM (inactive)	> 100 µM (inactive)	91.2 µM (inactive)	> 100 µM (inactive)	> 100 µM (inactive)	89.1 µM (inactive)	> 100 µM (inactive)	> 100 µM (inactive)	> 100 µM (inactive)	> 100 µM (inactive)	> 100 µM (inactive)	98.4 µM (inactive)	15 µM (inactive)	> 100 µM (inactive)	> 100 µM (inactive)	54.8 µM (inactive)	27.5 µM (inactive)	> 100 µM (inactive)	62.4 µM (inactive)	–
COC(=O)[C@@]12CCCC(=O)[C@@H]1[C@H]1CCC[C@H]12	> 100 µM (inactive)	> 100 µM (inactive)	–	> 100 µM (inactive)	> 100 µM (inactive)	> 100 µM (inactive)	> 100 µM (inactive)	> 100 µM (inactive)	> 100 µM (inactive)	> 100 µM (inactive)	> 100 µM (inactive)	> 100 µM (inactive)	> 100 µM (inactive)	> 100 µM (inactive)	> 100 µM (inactive)	> 100 µM (inactive)	> 100 µM (inactive)	> 100 µM (inactive)	> 100 µM (inactive)	> 100 µM (inactive)
CO/C(=N\N=C\c1ccc(Cl)cc1Cl)c1ccncc1	> 10 µM (inactive)	–	7.69 µM (inactive)	> 10 µM (inactive)	> 10 µM (inactive)	3.66 µM (inactive)	> 10 µM (inactive)	> 10 µM (inactive)	> 10 µM (inactive)	> 10 µM (inactive)	> 10 µM (inactive)	> 10 µM (inactive)	> 10 µM (inactive)	> 10 µM (inactive)	> 10 µM (inactive)	> 10 µM (inactive)	> 10 µM (inactive)	–	> 10 µM (inactive)	–
Nc1cccc2cc(Cl)cnc12	–	56.8 µM (inactive)	15.2 µM (inactive)	> 100 µM (inactive)	> 100 µM (inactive)	> 100 µM (inactive)	> 100 µM (inactive)	> 100 µM (inactive)	37.2 µM (inactive)	> 100 µM (inactive)	> 100 µM (inactive)	> 100 µM (inactive)	> 100 µM (inactive)	> 100 µM (inactive)	> 100 µM (inactive)	97.1 µM (inactive)	> 100 µM (inactive)	> 100 µM (inactive)	> 100 µM (inactive)	34.4 µM (inactive)
C=C(c1ccc2[nH]c(NC(=O)OC)nc2c1)c1cccs1	0.0925 µM (active)	0.121 µM (active)	0.354 µM (active)	0.129 µM (active)	0.06 µM (active)	0.0259 µM (active)	0.247 µM (active)	0.679 µM (active)	–	–	–	> 100 µM (inactive)	0.556 µM (active)	2.1 µM (inactive)	9.46 µM (inactive)	0.0914 µM (active)	0.155 µM (active)	0.0693 µM (active)	0.198 µM (active)	–
